In brackets after ≈: the same amount, converted by molar mass.
Experiments:
[1] = target: T1, VEGF receptor KDR (VEGFR2) (Homo sapiens, UniProt P35968); assay: In vitro receptor tyrosine kinase assay (VEGF receptor KDR), DELFIA; format: biochemical; conditions: recombinant GST-VEGFR2 (806-1356), ATP 0.6 uM, enzyme 5 nM; read-out: VEGFR_IC50_UM
T1 construct: made in house; host or cells: Sf9 cells (Spodoptera frugiperda), baculovirus
From the text: In Vitro Receptor Tyrosine Kinase Assay (VEGF receptor KDR)
This test measures the ability of compounds to inhibit the enzymatic activity of recombinant human VEGF receptor enzymatic activity.
A 1.6-kb cDNA corresponding to the catalytic domain of VEGFR2 (KDR) (Genbank accession number AF035121 amino acid 806 to 1356) is cloned into the Pst I site of the pDEST20 Gateway vector (Invitrogen) for the production of a GST-tagged version of that enzyme. This construct is used to generate recombinant baculovirus using the Bac-to-Bac™ system according to the manufacturer's instructions (Invitrogen).
The GST-VEGFR2806-1356 protein is expressed in Sf9 cells (Spodoptera frugiperda) upon infection with recombinant baculovirus construct. Briefly, Sf9 cells grown in suspension and maintained in serum-free medium (Sf900 II supplemented with gentamycin) at a cell density of about 2×10^6 cells/ml are infected with the above-mentioned viruses at a multiplicity of infection (MOI) of 0.1 during 72 hours at 27° C. with agitation at 120 rpm on a rotary shaker. Infected cells are harvested by centrifugation at 398g for 15 min. Cell pellets are frozen at −80° C. until purification is performed.
All steps described in cell extraction and purification are performed at 4° C. Frozen Sf9 cell pellets infected with the GST-VEGFR2806-1356 recombinant baculovirus are thawed and gently resuspended in Buffer A (PBS pH 7.3 supplemented with 1 μg/ml pepstatin, 2 μg/ml Aprotinin and leupeptin, 50 μg/ml PMSF, 50 μg/ml TLCK and 10 μM E64 and 0.5 mM DTT) using 3 ml of buffer per gram of cells. Suspension is Dounce homogenized and 1% Triton X-100 is added to the homogenate after which it is centrifuged at 22500 g, 30 min., 4 °C. The supernatant (cell extract) is used as starting material for purification of GST-VEGFR2806-1356.
The supernatant is loaded onto a GST-agarose column (Sigma) equilibrated with PBS pH 7.3. Following a four column volume (CV) wash with PBS pH 7.3+1% Triton X-100 and 4 CV wash with buffer B (50mM Tris pH 8.0, 20% glycerol and 100mM NaCl), bound proteins are step eluted with 5 CV of buffer B supplemented with 5 mM DTT and 15 mM glutathion. GST-VEGFR2806-1356 enriched fractions from this chromatography step are pooled based on U.V. trace i.e. fractions with high 0.D.280. Final GST-VEGFR2806-1356 protein preparations concentrations are about 0.7 mg/ml with purity approximating 70%. Purified GST-VEGFR2806-1356 protein stocks are aliquoted and frozen at −80° C. prior to use in enzymatic assay.
Inhibition of VEGFR/KDR is measured in a DELFIATM assay (Perkin Elmer). The substrate poly(Glu4, Tyr) is immobilized onto black high-binding polystyrene 96-well plates. The coated plates are washed and stored at 4° C. During the assay, the enzyme is pre-incubated with inhibitor and Mg-ATP on ice in polypropylene 96-well plates for 4 minutes, and then transferred to the coated plates. The subsequent kinase reaction takes place at 30° C. for 10-30 minutes. ATP concentrations in the assay are 0.6 uM for VEGFR/KDR (2× the Km). Enzyme concentration is 5 nM. After incubation, the kinase reactions are quenched with EDTA and the plates are washed. Phosphorylated product is detected by incubation with Europium-labeled anti-phosphotyrosine MoAb. After washing the plates, bound MoAb is detected by time-resolved fluorescence in a Gemini SpectraMax reader (Molecular Devices). Compounds are evaluated over a range of concentrations, and IC50 values (concentration of compounds giving 50% inhibition of enzymatic activity) are determined.

[2] = Solubility measurements in PBS (pH 7.4), filtration, HPLC-UV; format: physicochemical; conditions: PBS (pH 7.4) with 1% DMSO, aqueous buffer, kinetic from dmso stock, PBS pH 7.4, 100 μM test substance, room temperature
Procedure: The solubility of each substance was assessed using MultiScreen® HTS 96-well filtration system (filter; polycarbonate, pore size; 0.4 μm, Millipore). DMSO stock solutions of each test substance (10 mM) were prepared to initiate the assay. The equilibration was performed in PBS (pH 7.4) containing 100 μM of a test substance and 1% DMSO, for 24 hours at room temperature with shaking The concentrations of test substances in each filtrate were determined by HPLC-UV.
HPLC conditions were following:
Waters ACQUITY UPLC H class instrument.
Eluent A: 10 mM aqueous Ammonium formate
Eluent B: 0.1 volume % formic acid in acetonitrile
Flow: 1 mL/min, UV: 316 nm

T1 sequence (P35968 806-1356): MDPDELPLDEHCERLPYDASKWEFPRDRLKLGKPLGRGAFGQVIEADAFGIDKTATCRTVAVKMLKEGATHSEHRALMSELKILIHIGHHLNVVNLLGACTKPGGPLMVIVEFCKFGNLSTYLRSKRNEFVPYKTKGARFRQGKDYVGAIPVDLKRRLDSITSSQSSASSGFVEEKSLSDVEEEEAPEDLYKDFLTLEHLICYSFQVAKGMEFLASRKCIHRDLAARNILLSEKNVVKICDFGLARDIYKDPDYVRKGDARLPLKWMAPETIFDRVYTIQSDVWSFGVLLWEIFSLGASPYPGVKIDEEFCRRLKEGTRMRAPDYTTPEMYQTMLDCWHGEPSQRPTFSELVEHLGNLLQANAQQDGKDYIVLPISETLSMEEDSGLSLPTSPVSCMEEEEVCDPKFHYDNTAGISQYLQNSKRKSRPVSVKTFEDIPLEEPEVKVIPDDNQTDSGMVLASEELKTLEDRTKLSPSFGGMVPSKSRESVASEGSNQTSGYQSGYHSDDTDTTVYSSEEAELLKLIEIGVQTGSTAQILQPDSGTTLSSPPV

Q: Which results are given for C[C@H](O)CN1CCN(Cc2ccc(-c3cc4nccc(Oc5ccc(NC(=O)NC6CC6)cc5F)c4s3)nc2)CC1 [Compound 30]?
A: IC50 [1]: 4 nM; solubility at 24 h [2]: 6.46 µM (≈ 3.73 µg/mL)

Q: With CCCC(=O)OCC(=O)N1CCN(Cc2ccc(-c3cc4nccc(Oc5ccc(NC(=O)NC6CC6)cc5F)c4s3)nc2)CC1 [Compound 79, 2-(4-((6-(7-(4-(3-Cyclopropylureido)-2-fluorophenoxy)thieno[3,2-b]pyridin-2-yl)pyridin-3-yl)methyl)piperazin-1-yl)-2-oxoethyl butyrate] as the compound, how does the IC50 [1] read?
A: 19 nM

Q: For C[C@@H]1CN(Cc2ccc(-c3cc4nccc(Oc5ccc(NC(=O)NC6CC6)cc5F)c4s3)nc2)CCN1C(=O)CO [Compound 33], which IC50 [1] is on record?
A: 7 nM

Q: For CC(=O)OCC(=O)OCC(=O)N1CCN(Cc2ccc(-c3cc4nccc(Oc5ccc(NC(=O)NC6CC6)cc5F)c4s3)nc2)CC1 [Compound 34, 2-(4-((6-(7-(4-(3-Cyclopropylureido)-2-fluorophenoxy)thieno[3,2-b]pyridin-2-yl)pyridin-3-yl)methyl)piperazin-1-yl)-2-oxoethyl 2-acetoxyacetate], which IC50 [1] is on record?
A: 5 nM

Q: For COCCOCCOCC(=O)NC1CCN(Cc2ccc(-c3cc4nccc(Oc5ccc(NC(=O)NC6CC6)cc5F)c4s3)nc2)CC1 [Compound 31], which IC50 [1] is on record?
A: 17 nM

Q: Which IC50 [1] does the source give for CNCCNC(=O)C1CCCN(Cc2ccc(-c3cc4nccc(Oc5ccc(NC(=O)NC6CC6)cc5F)c4s3)nc2)C1 (centres unmarked) [Compound 5, 1-((6-(7-(4-(3-Cyclopropylureido)-2-fluorophenoxy)thieno[3,2-b]pyridin-2-yl)pyridin-3-yl)methyl)-N-(2-(methylamino)ethyl)piperidine-3-carboxamide] here?
A: 8 nM

Q: With CN(C)CCNC(=O)[C@@H]1CCCN(Cc2ccc(-c3cc4nccc(Oc5ccc(NC(=O)NC6CC6)cc5F)c4s3)nc2)C1 [Compound 10, (R)-1-((6-(7-(4-(3-Cyclopropylureido)-2-fluorophenoxy)thieno[3,2-b]pyridin-2-yl)pyridin-3-yl)methyl)-N-(2-(dimethylamino)ethyl)piperidine-3-carboxamide] as the compound, how does the IC50 [1] read?
A: 7 nM

Q: For CNCC(=O)N1CCN(Cc2ccc(-c3cc4nccc(Oc5ccc(NC(=O)NC6CC6)cc5F)c4s3)nc2)CC1 [Compound 28, 1-Cyclopropyl-3-(3-fluoro-4-(2-(5-((4-(2-(methylamino)acetyl)piperazin-1-yl)methyl)pyridin-2-yl)thieno[3,2-b]pyridin-7-yloxy)phenyl)urea], which IC50 [1] is on record?
A: 5 nM

Q: Which results are given for CC(C)(O)C(=O)N1CCN(Cc2ccc(-c3cc4nccc(Oc5ccc(NC(=O)NC6CC6)cc5F)c4s3)nc2)CC1 [Compound 35-A, 1-Cyclopropyl-3-(3-fluoro-4-(2-(5-((4-(2-hydroxy-2-methylpropanoyl)piperazin-1-yl)methyl)pyridin-2-yl)thieno[3,2-b]pyridin-7-yloxy)phenyl)urea]?
A: IC50 [1]: 1 nM; solubility at 24 h [2]: 1.19 µM (≈ 0.72 µg/mL)
